Results from patent US7396837B2, “Antitumoral analogs of lamellarins” (Pharma Mar, S.A.U., priority 2002, dated 2008).

How the values were obtained:
Type in all cases: cell-based
[1] = tested on: K-562; assay: SRB colorimetric cell growth inhibition assay, K-562; conditions: Homo sapiens, K562, K-562
Procedure, shortened: (§1)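 Cells are kept under uninterrupted exposure to compound. Staining with sulforhodamine B then measures cell growth and viability. Triplicate data give mean ± SD, from which growth inhibition, total growth inhibition and lethal concentration values follow.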

[2] = tested on: A-549; assay: SRB colorimetric cell growth inhibition assay, A-549; conditions: Homo sapiens, A549, A-549
Procedure, shortened: as §1

[3] = tested on: SK-MEL-28; assay: SRB colorimetric cell growth inhibition assay, SK-MEL-28; conditions: Homo sapiens, SK-MEL-28, MEL-28
Procedure, shortened: as §1

[4] = tested on: HT-29; assay: SRB colorimetric cell growth inhibition assay, HT-29; conditions: Homo sapiens, HT-29, HT-29
Procedure, shortened: as §1

[5] = tested on: LoVo; assay: SRB colorimetric cell growth inhibition assay, LoVo; conditions: Homo sapiens, LoVo
Procedure, shortened: as §1

[6] = tested on: LoVo-Dox; assay: SRB colorimetric cell growth inhibition assay, LoVo-Dox (MDR); conditions: Homo sapiens, LOVO-DOX
Procedure, shortened: as §1

[7] = tested on: DU-145; assay: SRB colorimetric cell growth inhibition assay, DU-145; conditions: Homo sapiens, DU-145, DU-145
Procedure, shortened: as §1

[8] = tested on: LNCaP; assay: SRB colorimetric cell growth inhibition assay, LNCaP; conditions: Homo sapiens, LNCaP, LN-caP
Procedure, shortened: as §1

[9] = tested on: SK-BR-3; assay: SRB colorimetric cell growth inhibition assay, SK-BR-3; conditions: Homo sapiens, SK-BR-3, SK-BR-3
Procedure, shortened: as §1

[10] = tested on: IGROV; assay: SRB colorimetric cell growth inhibition assay, IGROV; conditions: Homo sapiens, IGROV
Procedure, shortened: as §1

[11] = tested on: IGROV-ET; assay: SRB colorimetric cell growth inhibition assay, IGROV-ET (ET-743 resistant); conditions: Homo sapiens, IGROV-ET
Procedure, shortened: as §1

[12] = tested on: PANC-1; assay: SRB colorimetric cell growth inhibition assay, PANC-1; conditions: Homo sapiens, PANC-1, PANC-1
Procedure, shortened: as §1

[13] = tested on: SKOV-3; assay: SRB colorimetric cell growth inhibition assay, SKOV-3; conditions: Homo sapiens
Source text: Inhibition of Cell Growth by Colorimetric Assay.
A colorimetric type of assay, using sulforhodamine B (SRB) reaction has been adapted for a quantitative measurement of cell growth and viability (following the technique described by P. A. Skehan, et al., J. Natl. Cancer Inst. 1990, 82, 1107-1112).
This form of assay employs 96 well cell culture microplates of 9 mm diameter (T. Mosmann et al., J. of Immunological Methods 1983, 65, 55-63; G. T. Faircloth et al., J. of Tissue and Culture Methods 1988, 11, 201-205).
Most of the cell lines are obtained from American Type Culture Collection (ATCC) derived from different human cancer types.
The values for mean +/− SD of data from triplicate wells are calculated. Some parameters for cellular responses can be calculated: GI=growth inhibition, TGI=total growth inhibition (cytostatic effect) and LC=cell killing (cytotoxic effect).

COc1cc(-c2c3c4cc(OC)c(OC(=O)[C@H](C)NC(=O)OC(C)(C)C)cc4oc(=O)c3n3ccc4cc(OC(=O)[C@H](C)NC(=O)OC(C)(C)C)c(OC)cc4c23)ccc1OC(=O)[C@H](C)NC(=O)OC(C)(C)C [Compound 41]
GI50 ([1]; GI=growth inhibition, read-out: GI50 K-562): 1.77 µM
CC50 ([1]; LC=cell killing (cytotoxic effect), read-out: LC50 K-562): 8.02 µM
IC (TGI) ([1]; TGI=total growth inhibition (cytostatic effect), read-out: TGI K-562): 3.76 µM
GI50 ([2]; GI=growth inhibition, read-out: GI50 A-549): 2.42 µM
CC50 ([2]; LC=cell killing (cytotoxic effect), read-out: LC50 A-549): 9.87 µM
IC (TGI) ([2]; TGI=total growth inhibition (cytostatic effect), read-out: TGI A-549): 8.01 µM
GI50 ([3]; GI=growth inhibition, read-out: GI50 MEL-28): 1.86 µM
CC50 ([3]; LC=cell killing (cytotoxic effect), read-out: LC50 MEL-28): 9.43 µM
IC (TGI) ([3]; TGI=total growth inhibition (cytostatic effect), read-out: TGI MEL-28): 4.19 µM
GI50 ([4]; GI=growth inhibition, read-out: GI50 HT-29): 3.24 µM
CC50 ([4]; LC=cell killing (cytotoxic effect), read-out: LC50 HT-29): 9.87 µM
IC (TGI) ([4]; TGI=total growth inhibition (cytostatic effect), read-out: TGI HT-29): 8.89 µM
GI50 ([5]; GI=growth inhibition, read-out: GI50 LOVO): 3.31 µM
CC50 ([5]; LC=cell killing (cytotoxic effect), read-out: LC50 LOVO): 9.87 µM
IC (TGI) ([5]; TGI=total growth inhibition (cytostatic effect), read-out: TGI LOVO): 9.87 µM
GI50 ([6]; GI=growth inhibition, read-out: GI50 LOVO-DOX): 4.2 µM
CC50 ([6]; LC=cell killing (cytotoxic effect), read-out: LC50 LOVO-DOX): 9.87 µM
IC (TGI) ([6]; TGI=total growth inhibition (cytostatic effect), read-out: TGI LOVO-DOX): 9.87 µM
GI50 ([7]; GI=growth inhibition, read-out: GI50 DU-145): 0.679 µM
CC50 ([7]; LC=cell killing (cytotoxic effect), read-out: LC50 DU-145): 9.87 µM
IC (TGI) ([7]; TGI=total growth inhibition (cytostatic effect), read-out: TGI DU-145): 9.87 µM
GI50 ([8]; GI=growth inhibition, read-out: GI50 LN-caP): 2.1 µM
CC50 ([8]; LC=cell killing (cytotoxic effect), read-out: LC50 LN-caP): 9.87 µM
IC (TGI) ([8]; TGI=total growth inhibition (cytostatic effect), read-out: TGI LN-caP): 6.47 µM
GI50 ([9]; GI=growth inhibition, read-out: GI50 SK-BR-3): 1.62 µM
CC50 ([9]; LC=cell killing (cytotoxic effect), read-out: LC50 SK-BR-3): 9.87 µM
IC (TGI) ([9]; TGI=total growth inhibition (cytostatic effect), read-out: TGI SK-BR-3): 4.85 µM
GI50 ([10]; GI=growth inhibition, read-out: GI50 IGROV): 0.0917 µM
CC50 ([10]; LC=cell killing (cytotoxic effect), read-out: LC50 IGROV): 4.7 µM
IC (TGI) ([10]; TGI=total growth inhibition (cytostatic effect), read-out: TGI IGROV): 0.492 µM
GI50 ([11]; GI=growth inhibition, read-out: GI50 IGROV-ET): 0.188 µM
CC50 ([11]; LC=cell killing (cytotoxic effect), read-out: LC50 IGROV-ET): 9.87 µM
IC (TGI) ([11]; TGI=total growth inhibition (cytostatic effect), read-out: TGI IGROV-ET): 0.852 µM
GI50 ([12]; GI=growth inhibition, read-out: GI50 PANC-1): 2.48 µM
CC50 ([12]; LC=cell killing (cytotoxic effect), read-out: LC50 PANC-1): 9.87 µM
IC (TGI) ([12]; TGI=total growth inhibition (cytostatic effect), read-out: TGI PANC-1): 9.87 µM
GI50 ([13]; SK-OV-3, SKOV-3, GI=growth inhibition, read-out: GI50 SKOV-3): 5.95 µM
CC50 ([13]; SK-OV-3, SKOV-3, LC=cell killing (cytotoxic effect), read-out: LC50 SKOV-3): 9.87 µM
IC (TGI) ([13]; SK-OV-3, SKOV-3, TGI=total growth inhibition (cytostatic effect), read-out: TGI SKOV-3): 9.87 µM
